Results reported in US20240210412A1, “SULFONYL-TRIAZOLE COMPOUNDS USEFUL AS LIGANDS AND INHIBITORS OF PROSTAGLANDIN REDUCTASE 2” (University of Virginia Patent Foundation, priority 2021, published 2024).

Tests used:
Assay in all cases: SILAC LC-MS ABPP
Format in all cases: cell-based
Settings in all cases: 25 μM 2 h, live DM93 cells
O95373 = target: T1, O95373 (Homo sapiens, UniProt O95373)
T1 construct: endogenous in cells; host or cells: DM93 cells (SILAC)
Procedure, shortened: (§1)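 Quantification uses SILAC ratios from LC-MS/MS of probe-modified tyrosine peptides. DM93 melanoma cells: heavy treated with 25 μM SuTEx ligand, light with DMSO (2 h, 37 °C), followed by HHS-475 probe at 100 μM for 2 h.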

P06396 = target: T2, P06396 (Homo sapiens, UniProt P06396)
T2 construct: endogenous in cells; host or cells: DM93 cells (SILAC)
Procedure, shortened: as §1

P43490 = target: T3, P43490 (Homo sapiens, UniProt P43490)
T3 construct: endogenous in cells; host or cells: DM93 cells (SILAC)
T3 sequence (P43490 whole entry): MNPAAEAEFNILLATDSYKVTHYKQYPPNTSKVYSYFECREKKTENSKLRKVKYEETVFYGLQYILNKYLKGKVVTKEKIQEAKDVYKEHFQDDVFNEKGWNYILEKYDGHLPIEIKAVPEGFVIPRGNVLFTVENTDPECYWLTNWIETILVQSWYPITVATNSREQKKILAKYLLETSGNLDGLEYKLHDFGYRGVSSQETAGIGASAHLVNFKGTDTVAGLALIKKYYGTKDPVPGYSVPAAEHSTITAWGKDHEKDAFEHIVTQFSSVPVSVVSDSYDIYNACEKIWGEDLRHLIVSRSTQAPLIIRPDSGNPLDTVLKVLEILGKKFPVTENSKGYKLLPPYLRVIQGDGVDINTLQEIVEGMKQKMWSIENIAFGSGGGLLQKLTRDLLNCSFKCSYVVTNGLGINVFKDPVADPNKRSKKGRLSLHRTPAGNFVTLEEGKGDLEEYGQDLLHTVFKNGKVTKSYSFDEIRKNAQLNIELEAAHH
Procedure, shortened: as §1

Q92734 = target: T4, Q92734 (Homo sapiens, UniProt Q92734)
T4 construct: endogenous in cells; host or cells: DM93 cells (SILAC), live-cell treatment
T4 sequence (Q92734 whole entry): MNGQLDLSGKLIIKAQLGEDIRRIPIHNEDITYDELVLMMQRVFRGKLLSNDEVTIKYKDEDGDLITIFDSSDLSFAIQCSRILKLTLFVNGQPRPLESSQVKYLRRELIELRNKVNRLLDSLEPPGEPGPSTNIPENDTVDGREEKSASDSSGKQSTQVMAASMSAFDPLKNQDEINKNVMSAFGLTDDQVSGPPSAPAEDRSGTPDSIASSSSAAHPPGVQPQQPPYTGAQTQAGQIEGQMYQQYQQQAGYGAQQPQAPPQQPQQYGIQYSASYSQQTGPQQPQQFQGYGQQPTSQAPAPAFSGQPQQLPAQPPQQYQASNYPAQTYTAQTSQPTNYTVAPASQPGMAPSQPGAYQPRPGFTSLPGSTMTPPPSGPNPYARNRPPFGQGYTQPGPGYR
Procedure, shortened: as §1

Q9HAU0 = target: T5, Q9HAU0 (Homo sapiens, UniProt Q9HAU0)
T5 construct: endogenous in cells; host or cells: DM93 cells (SILAC), treated live; soluble proteome analysed
T5 sequence (Q9HAU0 whole entry): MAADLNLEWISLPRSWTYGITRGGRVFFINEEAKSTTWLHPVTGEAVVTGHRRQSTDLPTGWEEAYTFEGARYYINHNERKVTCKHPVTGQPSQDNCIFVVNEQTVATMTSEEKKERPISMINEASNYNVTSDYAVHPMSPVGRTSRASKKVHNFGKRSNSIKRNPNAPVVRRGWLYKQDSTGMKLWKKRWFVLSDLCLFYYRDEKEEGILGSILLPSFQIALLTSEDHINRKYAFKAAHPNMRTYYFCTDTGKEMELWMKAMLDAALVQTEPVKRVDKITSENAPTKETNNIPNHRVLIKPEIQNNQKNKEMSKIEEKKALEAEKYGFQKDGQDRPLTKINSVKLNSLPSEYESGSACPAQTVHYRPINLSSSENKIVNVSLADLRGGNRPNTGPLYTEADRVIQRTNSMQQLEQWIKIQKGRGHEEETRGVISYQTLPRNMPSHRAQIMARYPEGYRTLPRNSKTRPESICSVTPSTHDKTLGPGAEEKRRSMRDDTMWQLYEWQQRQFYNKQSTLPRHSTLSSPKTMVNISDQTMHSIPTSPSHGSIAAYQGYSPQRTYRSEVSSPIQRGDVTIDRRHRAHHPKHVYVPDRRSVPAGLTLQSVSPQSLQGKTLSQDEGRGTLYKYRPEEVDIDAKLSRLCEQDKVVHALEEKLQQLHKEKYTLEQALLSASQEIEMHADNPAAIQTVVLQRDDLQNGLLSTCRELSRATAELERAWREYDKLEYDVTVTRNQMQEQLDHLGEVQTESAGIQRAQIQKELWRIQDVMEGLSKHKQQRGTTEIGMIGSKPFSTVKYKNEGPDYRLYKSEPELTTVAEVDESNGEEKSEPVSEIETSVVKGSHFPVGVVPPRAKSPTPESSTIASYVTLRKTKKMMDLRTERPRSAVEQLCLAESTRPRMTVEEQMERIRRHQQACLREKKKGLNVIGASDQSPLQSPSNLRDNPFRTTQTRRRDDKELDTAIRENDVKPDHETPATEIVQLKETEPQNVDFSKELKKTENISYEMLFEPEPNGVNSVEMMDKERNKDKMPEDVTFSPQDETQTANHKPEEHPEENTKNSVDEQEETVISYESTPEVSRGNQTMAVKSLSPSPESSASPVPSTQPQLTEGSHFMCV
Procedure, shortened: as §1

Q9P2B4 = target: T6, Q9P2B4 (Homo sapiens, UniProt Q9P2B4)
T6 construct: endogenous in cells; host or cells: DM93 cells (SILAC)
Procedure, shortened: as §1

O75521 = target: T7, O75521 (Homo sapiens, UniProt O75521)
T7 construct: endogenous in cells; host or cells: DM93 cells (SILAC)
Procedure, shortened: as §1

Q13107 = target: T8, Q13107 (Homo sapiens, UniProt Q13107)
T8 construct: performing SuTEx compound screening directly in cells; endogenous in cells; host or cells: DM93 cells (SILAC), soluble fraction
Procedure, shortened: as §1

Q96A72 = target: T9, Q96A72 (Homo sapiens, UniProt Q96A72)
T9 construct: endogenous in cells; host or cells: DM93 cells (SILAC), treated live; soluble proteome analysed
T9 sequence (Q96A72 whole entry): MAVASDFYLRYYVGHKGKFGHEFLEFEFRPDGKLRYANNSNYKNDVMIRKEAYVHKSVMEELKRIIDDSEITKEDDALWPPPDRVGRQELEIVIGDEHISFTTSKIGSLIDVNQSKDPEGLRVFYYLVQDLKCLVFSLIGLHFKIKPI
Procedure, shortened: as §1

O43156 = target: T10, O43156 (Homo sapiens, UniProt O43156)
T10 construct: endogenous in cells; host or cells: DM93
Procedure, shortened: as §1

P09874 = target: T11, P09874 (Homo sapiens, UniProt P09874)
T11 construct: endogenous in cells; host or cells: DM93 cells (SILAC)
Procedure, shortened: as §1

P61289 = target: T12, P61289 (Homo sapiens, UniProt P61289)
T12 construct: endogenous in cells; host or cells: DM93 cells (SILAC)
T12 sequence (P61289 whole entry): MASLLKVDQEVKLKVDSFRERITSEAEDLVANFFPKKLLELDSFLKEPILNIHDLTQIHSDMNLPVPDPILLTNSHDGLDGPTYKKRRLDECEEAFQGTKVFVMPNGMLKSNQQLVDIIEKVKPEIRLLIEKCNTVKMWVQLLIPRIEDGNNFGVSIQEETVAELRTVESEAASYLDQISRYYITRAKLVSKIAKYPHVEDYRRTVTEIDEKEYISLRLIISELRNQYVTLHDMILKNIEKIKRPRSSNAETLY
Procedure, shortened: as §1

Q13151 = target: T13, Q13151 (Homo sapiens, UniProt Q13151)
T13 construct: performing SuTEx compound screening directly in cells; endogenous in cells; host or cells: DM93 cells (SILAC), soluble fraction
T13 sequence (Q13151 whole entry): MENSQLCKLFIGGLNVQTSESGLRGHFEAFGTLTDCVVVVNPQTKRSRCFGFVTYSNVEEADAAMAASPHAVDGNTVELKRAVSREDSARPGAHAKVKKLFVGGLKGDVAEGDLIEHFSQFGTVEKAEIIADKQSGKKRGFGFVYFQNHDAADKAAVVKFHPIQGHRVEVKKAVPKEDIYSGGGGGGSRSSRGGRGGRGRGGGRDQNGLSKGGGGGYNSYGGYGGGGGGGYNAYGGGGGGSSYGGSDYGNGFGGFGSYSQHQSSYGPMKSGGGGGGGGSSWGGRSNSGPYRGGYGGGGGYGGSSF
Procedure, shortened: as §1

Q14847 = target: T14, Q14847 (Homo sapiens, UniProt Q14847)
T14 construct: performing SuTEx compound screening directly in cells; endogenous in cells; host or cells: DM93 cells (SILAC), soluble fraction
T14 sequence (Q14847 whole entry): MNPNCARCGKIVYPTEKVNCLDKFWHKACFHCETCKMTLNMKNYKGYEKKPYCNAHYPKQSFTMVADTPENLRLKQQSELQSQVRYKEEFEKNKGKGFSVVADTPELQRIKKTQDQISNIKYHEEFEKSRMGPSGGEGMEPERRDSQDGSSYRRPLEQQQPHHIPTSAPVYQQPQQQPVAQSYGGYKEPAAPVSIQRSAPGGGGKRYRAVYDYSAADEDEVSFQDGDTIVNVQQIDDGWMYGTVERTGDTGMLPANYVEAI
Procedure, shortened: as §1

Q7Z460 = target: T15, Q7Z460 (Homo sapiens, UniProt Q7Z460)
T15 construct: endogenous in cells; host or cells: DM93 cells (SILAC), live-cell treatment
Procedure, shortened: as §1

Q09028 = target: T16, Q09028 (Homo sapiens, UniProt Q09028)
T16 construct: performing SuTEx compound screening directly in cells; endogenous in cells; host or cells: DM93 cells (SILAC)
T16 sequence (Q09028 whole entry): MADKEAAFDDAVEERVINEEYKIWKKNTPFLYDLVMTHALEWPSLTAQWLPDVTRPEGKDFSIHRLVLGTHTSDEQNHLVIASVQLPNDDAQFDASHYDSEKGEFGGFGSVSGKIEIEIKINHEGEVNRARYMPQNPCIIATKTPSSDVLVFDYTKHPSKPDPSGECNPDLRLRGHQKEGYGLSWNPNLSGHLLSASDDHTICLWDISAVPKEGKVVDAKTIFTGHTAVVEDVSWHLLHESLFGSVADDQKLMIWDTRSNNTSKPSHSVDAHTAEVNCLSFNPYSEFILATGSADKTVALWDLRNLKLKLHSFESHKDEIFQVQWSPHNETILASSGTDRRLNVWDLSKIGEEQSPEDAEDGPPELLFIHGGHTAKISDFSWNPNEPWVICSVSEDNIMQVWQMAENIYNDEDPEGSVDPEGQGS
Procedure, shortened: as §1

Q12874 = target: T17, Q12874 (Homo sapiens, UniProt Q12874)
T17 construct: performing SuTEx compound screening directly in cells; endogenous in cells; host or cells: DM93 cells (SILAC)
Procedure, shortened: as §1

Q14247 = target: T18, Q14247 (Homo sapiens, UniProt Q14247)
T18 construct: performing SuTEx compound screening directly in cells; endogenous in cells; host or cells: DM93 cells (SILAC), soluble fraction
T18 sequence (Q14247 whole entry): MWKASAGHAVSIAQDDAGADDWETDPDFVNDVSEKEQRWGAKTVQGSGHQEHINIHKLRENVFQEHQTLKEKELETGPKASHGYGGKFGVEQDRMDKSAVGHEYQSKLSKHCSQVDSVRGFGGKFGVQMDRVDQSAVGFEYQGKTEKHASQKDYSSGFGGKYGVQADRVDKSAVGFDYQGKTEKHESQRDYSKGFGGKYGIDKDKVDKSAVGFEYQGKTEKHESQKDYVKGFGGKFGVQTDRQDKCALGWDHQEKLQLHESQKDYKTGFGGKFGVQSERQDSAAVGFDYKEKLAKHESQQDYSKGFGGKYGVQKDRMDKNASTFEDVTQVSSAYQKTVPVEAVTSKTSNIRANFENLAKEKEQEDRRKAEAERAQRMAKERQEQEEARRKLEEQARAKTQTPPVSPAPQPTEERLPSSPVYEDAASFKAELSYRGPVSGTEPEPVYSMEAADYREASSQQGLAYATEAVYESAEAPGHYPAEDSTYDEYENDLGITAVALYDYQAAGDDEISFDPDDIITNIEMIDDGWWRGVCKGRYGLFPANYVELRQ
Procedure, shortened: as §1

T1 sequence (O95373 whole entry): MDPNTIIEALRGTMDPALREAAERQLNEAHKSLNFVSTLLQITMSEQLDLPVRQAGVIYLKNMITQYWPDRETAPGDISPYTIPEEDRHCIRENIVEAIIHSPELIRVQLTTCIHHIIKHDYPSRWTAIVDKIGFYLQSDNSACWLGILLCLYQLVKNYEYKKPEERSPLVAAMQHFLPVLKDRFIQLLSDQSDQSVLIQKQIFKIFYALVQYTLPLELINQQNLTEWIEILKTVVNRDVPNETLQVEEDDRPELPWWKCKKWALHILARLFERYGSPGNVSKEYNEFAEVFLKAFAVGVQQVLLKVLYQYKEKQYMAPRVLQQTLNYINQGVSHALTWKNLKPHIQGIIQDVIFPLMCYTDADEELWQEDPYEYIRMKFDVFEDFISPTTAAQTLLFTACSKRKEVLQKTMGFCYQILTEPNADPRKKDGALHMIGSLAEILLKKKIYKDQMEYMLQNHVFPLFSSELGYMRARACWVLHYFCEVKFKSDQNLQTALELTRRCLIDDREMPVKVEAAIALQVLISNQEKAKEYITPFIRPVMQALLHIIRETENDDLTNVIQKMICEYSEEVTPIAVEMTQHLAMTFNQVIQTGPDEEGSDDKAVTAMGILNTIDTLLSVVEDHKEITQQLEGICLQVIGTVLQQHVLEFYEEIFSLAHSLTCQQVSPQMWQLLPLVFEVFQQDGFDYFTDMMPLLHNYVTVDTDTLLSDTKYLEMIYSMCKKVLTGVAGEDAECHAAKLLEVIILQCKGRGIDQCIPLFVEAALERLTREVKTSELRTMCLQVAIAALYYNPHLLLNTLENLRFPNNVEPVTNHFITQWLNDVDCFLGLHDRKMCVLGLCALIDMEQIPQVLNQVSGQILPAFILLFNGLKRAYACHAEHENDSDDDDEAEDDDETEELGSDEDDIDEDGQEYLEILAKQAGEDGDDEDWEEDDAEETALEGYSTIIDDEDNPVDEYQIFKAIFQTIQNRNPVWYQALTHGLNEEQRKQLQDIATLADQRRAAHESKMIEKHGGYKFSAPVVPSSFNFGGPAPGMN

O=C(c1ccc(S(=O)(=O)n2cncn2)cc1)N1CCC(c2ccccc2)CC1 [HHS-0701, (4-((1H-1,2,4-triazol-1-yl)sulfonyl)phenyl)(4-phenylpiperidin-1-yl)methanone]
liganded tyrosine site 416 (O95373): HHS0701.Y (tyrosine sites that showed >80% reductions (SR >5) in probe labeling in cells treated with compounds (liganded sites))
liganded tyrosine site 455 (O95373): HHS0701.Y (tyrosine sites that showed >80% reductions (SR >5) in probe labeling in cells treated with compounds (liganded sites))
liganded tyrosine site 469 (P06396): HHS0701.Y (tyrosine sites that showed >80% reductions (SR >5) in probe labeling in cells treated with compounds (liganded sites))
liganded tyrosine site 188 (P43490): HHS0701.Y (tyrosine sites that showed >80% reductions (SR >5) in probe labeling in cells treated with compounds (liganded sites))
liganded tyrosine site 392 (Q92734): HHS0701.Y (tyrosine sites that showed >80% reductions (SR >5) in probe labeling in cells treated with compounds (liganded sites))
liganded tyrosine site 553 (Q9HAU0): HHS0701.Y (tyrosine sites that showed >80% reductions (SR >5) in probe labeling in cells treated with compounds (liganded sites))
liganded tyrosine site 343 (Q9P2B4): HHS0701.Y (tyrosine sites that showed >80% reductions (SR >5) in probe labeling in cells treated with compounds (liganded sites))

O=C(NCC1CC1)c1ccc(S(=O)(=O)n2cncn2)cc1 [HHS-0201, 4-((1H-1,2,4-triazol-1-yl)sulfonyl)-N-(cyclopropylmethyl)benzamide]
liganded tyrosine site 285 (O75521): HHS0201.Y|HHS0301.Y|HHS0401.Y (tyrosine sites that showed >80% reductions (SR >5) in probe labeling in cells treated with compounds (liganded sites))
liganded tyrosine site 192 (Q13107): HHS0201.Y|HHS0301.Y (tyrosine sites that showed >80% reductions (SR >5) in probe labeling in cells treated with compounds (liganded sites))
liganded tyrosine site 36 (Q96A72): HHS0201.Y (tyrosine sites that showed >80% reductions (SR >5) in probe labeling in cells treated with compounds (liganded sites))

O=C(NC1CC1)c1ccc(S(=O)(=O)n2cncn2)cc1 [HHS-0101, 4-((1H-1,2,4-triazol-1-yl)sulfonyl)-N-cyclopropylbenzamide]
liganded tyrosine site 51 (O43156): HHS0101.Y|HHS0401.Y|HHS0701.Y (tyrosine sites that showed >80% reductions (SR >5) in probe labeling in cells treated with compounds (liganded sites))
liganded tyrosine site 645 (P09874): HHS0101.Y (tyrosine sites that showed >80% reductions (SR >5) in probe labeling in cells treated with compounds (liganded sites))
liganded tyrosine site 196 (P61289): HHS0101.Y|HHS0201.Y|HHS0401.Y (tyrosine sites that showed >80% reductions (SR >5) in probe labeling in cells treated with compounds (liganded sites))
liganded tyrosine site 180 (Q13151): HHS0101.Y (tyrosine sites that showed >80% reductions (SR >5) in probe labeling in cells treated with compounds (liganded sites))
liganded tyrosine site 57 (Q14847): HHS0101.Y (tyrosine sites that showed >80% reductions (SR >5) in probe labeling in cells treated with compounds (liganded sites))
liganded tyrosine site 1267 (Q7Z460): HHS0101.Y|HHS0301.Y|HHS0401.Y (tyrosine sites that showed >80% reductions (SR >5) in probe labeling in cells treated with compounds (liganded sites))

O=C(NC1CCCCC1)c1ccc(S(=O)(=O)n2cncn2)cc1 [HHS-0301, 4-((1H-1,2,4-triazol-1-yl)sulfonyl)-N-cyclohexylbenzamide]
liganded tyrosine site 154 (Q09028): HHS0301.Y|HHS0701.Y (tyrosine sites that showed >80% reductions (SR >5) in probe labeling in cells treated with compounds (liganded sites))
liganded tyrosine site 139 (Q12874): HHS0301.Y (tyrosine sites that showed >80% reductions (SR >5) in probe labeling in cells treated with compounds (liganded sites))
liganded tyrosine site 154 (Q14247): HHS0301.Y|HHS0401.Y (tyrosine sites that showed >80% reductions (SR >5) in probe labeling in cells treated with compounds (liganded sites))
